The target of one assay is T1, STARD4 (Homo sapiens, UniProt Q96DR4, C75S).
T1 construct: STARD4(2-205; C75S); made in house; host or cells: E. coli BL21(DE3)
T1 sequence (Q96DR4 2-205 C75S): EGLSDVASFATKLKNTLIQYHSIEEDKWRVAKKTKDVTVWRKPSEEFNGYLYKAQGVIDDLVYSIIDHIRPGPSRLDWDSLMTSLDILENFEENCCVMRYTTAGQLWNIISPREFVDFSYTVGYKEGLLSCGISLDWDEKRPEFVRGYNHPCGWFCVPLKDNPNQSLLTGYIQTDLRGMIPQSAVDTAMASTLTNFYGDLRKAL
In words: Differential scanning fluorimetry (DSF), STARD4. Conditions: single dose, Dose = 10 µM. It is filed as binding. An excerpt: (§1) Protein expression constructs
(§2) Human ASTER domains of Aster-A(359-547), -B(364-552) and -C(318-504) were subcloned into a pGEX-6p-2rbs vector, thus introducing the cloning artifact ‘GPLGS’.3 The pGEX-6P-1-GST-OSBP(377- […]
(§3) a gift from James H. Hurley (University of California).4 The pHIS_2His6_Thrombin_STARD4(2-205;C75S) plasmid was a gift from Young Jun Im (Chonnam National University).5 STARD5A was a gift from Nicola Burgess-Brown (Addgene plasmid #42392; http://n2t.net/addgene:42392; […]
(§4) Protein expression and purification […]
(§5) vectors including an N-terminal PreScission-cleavable glutathione S-transferase (GST)-tag were expressed in Escherichia coli (E. coli) OverExpress C41 in Terrific Broth (TB) medium for 16 h at 18 °C after the induction with 0.1 mM isopropyl β-D-1-thiogalactopyranoside (IPTG). Cells were harvested at 3500 × g for 15 minutes and lysed by sonication in buffer containing 50 mM HEPES pH 7.5, 300 mM NaCl, 10 %v/v glycerol, 5 mM dithiothreitol (DTT), 0.1 %v/v Triton X-100 and protease inhibitor mix HP plus (Serva). The lysate was purified by affinity chromatography on a GSTrap FF column (Cytiva) using an ÄKTA Start (Cytiva) in buffer containing 50 mM HEPES pH 7.5, 300 mM NaCl, 10 %v/v glycerol, 5 mM DTT and 0.01 %v/v Triton X-100. The GST-tag was cleaved overnight on the column at 4 °C. The Aster sterol binding domains were further purified by size-exclusion chromatography (SEC) on a HiLoad 16/600 Superdex 75 pg (Cytiva) in buffer containing 20 mM HEPES pH 7.5, 300 mM NaCl, 10 %v/v […]
(§6) STARD5(6-213) harboring an N-terminal His6-Tag were expressed in E. coli BL21(DE3) in Luria-Bertani Broth (LB) medium for approximately 16 h at 18 °C after induction with 0.15 mM IPTG. Cells were harvested at 3500 × g for 15 minutes and lysed by sonication in buffer containing 50 mM HEPES pH 7.5, 150 mM NaCl, 5 %v/v glycerol, 5 mM DTT, 0.1 %v/v Triton X -100 and ethylenediaminetetraacetic acid (EDTA)-free protease inhibitor cocktail (Sigma-Aldrich). The cleared lysate was purified by affinity chromatography on a Ni-NTA Superflow Cartridge (Qiagen) using an ÄKTA Start (Cytiva) in buffer containing 50 mM HEPES pH 7.5, 150 mM NaCl, 5 %v/v glycerol, 5 mM DTT. START domains were eluted by using elution buffer containing 50 mM HEPES pH 7.5, 150 mM NaCl, 5 %v/v glycerol, 5 mM DTT and 500 mM imidazole. Proteins were further purified by SEC on a HiLoad 16/600 Superdex 75 pg (Cytiva) in buffer containing 20 mM HEPES pH 7.5, 150 mM NaCl, 5 %v/v glycerol and 2 mM DTT.
(§7) The ORP domain of human OSBP(377-807) in the pGEX-6p-1 vector with an N-terminal PreScission-cleavable GST-tag was expressed in E. coli OverExpress C41 in LB medium for 16 h at 18 °C after induction with 0.1 mM IPTG. Cells were harvested at 3500 × g for 15 minutes and lysed by sonication in buffer containing 20 mM HEPES pH 7.5, 300 mM NaCl, 10 %v/v glycerol, 5 mM DTT, 0.1 %v/v Triton X-100 and EDTA-free protease inhibitor cocktail (Sigma-Aldrich). The cleared lysate was purified by affinity chromatography on a GSTrap HF column (Cytiva) using an ÄKTA Start (Cytiva) in buffer containing 20 mM HEPES pH 7.5, 300 mM NaCl, 10 %v/v glycerol, 5 mM DTT. OSBP(377 -807) was eluted by using elution buffer containing 20 mM HEPES pH 7.5, 300 mM NaCl, 10 %v/v glycerol, 5 mM DTT and 10 mM reduced glutathione. Proteins were further purified by SEC on a HiLoad 16/600 Superdex 75 pg (Cytiva) using an ÄKTA Explorer (Cytiva) in buffer containing 20 mM HEPES pH 7.5, 150 mM NaCl, 10 %v/v glycerol and 2 mM DTT.
(§8) The ORP domains of human ORP1(534-950) in pET24b(+) and ORP2(49-480) in the pET24b(+) vector including an N-terminal His6-Tag were expressed in E. coli BL21(DE3) in TB medium for approximately 16 h at 18 °C after induction with 0.1 mM IPTG. Cells were collected at 3500 × g for 15 minutes and lysed by sonification in buffer containing 10 mM Tris-HCl pH 8, 300 mM NaCl, 5 % glycerol, 2 mM DTT, 0.1 % Triton X-100 and EDTA-free protease inhibitor cocktail (Sigma-Aldrich). The cleared […]

A further assay addresses T2, OSBP (Homo sapiens, UniProt P22059).
T2 construct: OSBP(377-807); host or cells: E. coli OverExpress C41
T2 sequence (P22059 377-807): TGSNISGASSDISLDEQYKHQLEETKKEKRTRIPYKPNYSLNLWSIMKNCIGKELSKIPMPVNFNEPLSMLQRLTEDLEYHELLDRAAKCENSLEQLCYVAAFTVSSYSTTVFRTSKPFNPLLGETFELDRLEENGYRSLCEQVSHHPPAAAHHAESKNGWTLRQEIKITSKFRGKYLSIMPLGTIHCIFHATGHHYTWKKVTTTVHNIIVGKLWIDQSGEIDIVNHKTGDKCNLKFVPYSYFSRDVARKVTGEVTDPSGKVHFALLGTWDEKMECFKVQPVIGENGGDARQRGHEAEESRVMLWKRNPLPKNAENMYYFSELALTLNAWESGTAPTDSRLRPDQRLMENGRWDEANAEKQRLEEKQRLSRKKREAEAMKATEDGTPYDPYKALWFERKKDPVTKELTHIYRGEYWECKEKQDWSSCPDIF
Briefly: Fluorescence polarisation (FP) competition with NBD-cholesterol, OSBP. Particulars: single dose; for OSBP (FP) inhibition: Dose = 10 µM. The format is binding.
Description: as §1, §2, §3, §4, §5, §6, §7, §8
A general note: Polarisation of emitted light reports the rotation of a fluorescent probe.

In the case of `C[C@]12CC[C@@H](O)C[C@H]1CCc1sc(-c3cccnc3)nc12` [Compound 8c], at STARD4, the “STARD4 (DSF) ΔTm” value was 0.173 °C. Further, at OSBP, the “OSBP (FP) inhibition” value came to 17.3%.

For `COc1ccc(-c2nc3c(s2)CC[C@@H]2C[C@H](O)CC[C@]32C)cc1` [Compound 8d], the thermal shift (ΔTm) at 10 µM at STARD4 is 0.3 °C. Also, the inhibition at 10 µM at OSBP is 2.6%.

Regarding `C[C@]12CC[C@@H](O)C[C@H]1CCc1sc(-c3ccc(F)cc3)nc12` [Compound 8e], the “STARD4 (DSF) ΔTm” value at STARD4 worked out at 0.7 °C. Moreover, the “OSBP (FP) inhibition” value on OSBP stood at 1.3%.

On to `C[C@]12CC[C@@H](O)C[C@H]1CCc1[nH]c(-c3ccccc3)nc12` [Compound 9], for which, at STARD4, the ΔTm at 10 µM was -0.0502 °C. Further, the inhibition at 10 µM at OSBP was 5%.

Regarding `C[C@]12CC[C@@H](O)C[C@H]1CCc1c2[nH]c2ccccc12` [Compound 10a], at STARD4, the “STARD4 (DSF) ΔTm” value was found to be 0.0293 °C. In addition, on OSBP, the “OSBP (FP) inhibition” value was found to be 1.3%.

For the compound `C[C@]12CC[C@@H](O)C[C@H]1CCc1c2[nH]c2ccc(Br)cc12` [Compound 10b], at STARD4, the “STARD4 (DSF) ΔTm” value was 0.2 °C. In addition, on OSBP, the “OSBP (FP) inhibition” value is -12.0%.

On to `C[C@]12CC[C@@H](O)C[C@H]1CCc1c2[nH]c2ccc(Cl)cc12` [Compound 10c], for which the “STARD4 (DSF) ΔTm” value on STARD4 was 0.284 °C. The “OSBP (FP) inhibition” value on OSBP is reported as -10.0%.

For the compound `C[C@]12CC[C@@H](O)C[C@H]1CCc1c2[nH]c2ccc(F)cc12` [Compound 10d], at STARD4, the “STARD4 (DSF) ΔTm” value worked out at 0.167 °C. Besides, on OSBP, the “OSBP (FP) inhibition” value is listed as -7.0%.

Turning to `Cc1ccc2[nH]c3c(c2c1)CC[C@@H]1C[C@H](O)CC[C@]31C` [Compound 10e], the shift in melting temperature (ΔTm) at 10 µM at STARD4 turned out to be 0.284 °C. Besides, the inhibition at 10 µM on OSBP was -1.3%.

Regarding `COc1ccc2[nH]c3c(c2c1)CC[C@@H]1C[C@H](O)CC[C@]31C` [Compound 10f], the shift in melting temperature (ΔTm) at 10 µM on STARD4 amounted to 0.0284 °C. In addition, the inhibition at 10 µM on OSBP is -6.7%.

`CC12CCC(O)CC1CCc1c2[nH]c2ccc(C(F)(F)F)cc12` (centres unmarked) [Compound 10g]: the ΔTm at 10 µM on STARD4 amounted to 0.00665 °C. Further, the inhibition at 10 µM at OSBP is -8%.

On to `C[C@]12CC[C@@H](O)C[C@H]1CCc1c2[nH]c2ccc(I)cc12` [Compound 10h], for which, at STARD4, the “STARD4 (DSF) ΔTm” value is -0.0169 °C. Also, the “OSBP (FP) inhibition” value at OSBP amounted to 18.7%.

With `C[C@]12CC[C@@H](O)C[C@H]1CCc1c2[nH]c2c(F)cc(Cl)cc12` [Compound 10i], the ΔTm at 10 µM on STARD4 is 0.441 °C. On OSBP, the inhibition at 10 µM is -9.3%.

Turning to `Cc1cc(C)c2c3c([nH]c2c1)[C@@]1(C)CC[C@@H](O)C[C@H]1CC3` [Compound 10j], the shift in melting temperature (ΔTm) at 10 µM at STARD4 was -0.144 °C. The inhibition at 10 µM on OSBP was -16%.

Turning to `CCOC(=O)c1ccc2[nH]c3c(c2c1)CC[C@@H]1C[C@H](O)CC[C@]31C` [Compound 10k], on STARD4, the “STARD4 (DSF) ΔTm” value was -0.04 °C. Further, the “OSBP (FP) inhibition” value on OSBP is given as 2.0%.

As for `C[C@]12CC[C@@H](O)C[C@H]1CCC(=O)c1ccccc1NC2=O` [Compound 11a], the “STARD4 (DSF) ΔTm” value at STARD4 was -0.0281 °C. The “OSBP (FP) inhibition” value on OSBP is 2.7%.

With `C[C@]12CC[C@@H](O)C[C@H]1CCC(=O)c1cc(Br)ccc1NC2=O` [Compound 11b], at STARD4, the ΔTm at 10 µM was 0.126 °C. Moreover, the inhibition at 10 µM at OSBP was determined as 12%.

In the case of `Cc1ccc2c(c1)C(=O)CC[C@@H]1C[C@H](O)CC[C@]1(C)C(=O)N2` [Compound 11c], the shift in melting temperature (ΔTm) at 10 µM on STARD4 is -0.0446 °C. Further, the inhibition at 10 µM on OSBP came out at 18.7%.

`COc1ccc2c(c1)C(=O)CC[C@@H]1C[C@H](O)CC[C@]1(C)C(=O)N2` [Compound 11d]: at STARD4, the ΔTm at 10 µM was -0.0249 °C. Besides, the inhibition at 10 µM at OSBP was -5.3%.

For the compound `C[C@]12CC[C@@H](O)C[C@H]1CCC(=O)c1cc(C(F)(F)F)ccc1NC2=O` [Compound 11e], at STARD4, the ΔTm at 10 µM is -0.0316 °C. The inhibition at 10 µM at OSBP stood at 15%.

Turning to `C[C@]12CC[C@@H](O)C[C@H]1CCC(=O)c1cc(Cl)cc(F)c1NC2=O` [Compound 11f], the “STARD4 (DSF) ΔTm” value at STARD4 was -0.0242 °C. Besides, the “OSBP (FP) inhibition” value on OSBP is 9.0%.

With `Cc1cc(C)c2c(c1)NC(=O)[C@@]1(C)CC[C@@H](O)C[C@H]1CCC2=O` [Compound 11g], the ΔTm at 10 µM on STARD4 stood at 0.464 °C. Moreover, the inhibition at 10 µM at OSBP was -5.3%.

For orientation: ΔTm means the change in melting temperature against a reference sample. As usually defined, the inhibition is the drop in the measured response relative to a control, in per cent.
